Source: patent US20260263391A1, “COMPOUND AND USE THEREOF” (BENETHERA (SHAOXING) BIOTECHNOLOGY CO., LTD., priority 2023, published 2026)

Experiments:
Psoriasis mouse model [1] = settings: 0.025% ointment, 200 mg applied on the back for 6 consecutive days
Protocol: Psoriasis mouse model was established by intradermal injection of recombinant TL-23 (1 ng/20 μL PBS, per mouse per day for 4 consecutive days) into depilated mice on the back.
Each group was applied with different substances (as shown in Table 3) on the backs of the mice for 6 consecutive days. From Day 1, the symptoms of the back skin of the model mice and the mice in the treatment group were scored every day.

Psoriasis mouse model [2] = assay: IL-23 psoriasis mouse model, comparative efficacy of Compound 1 ointment and Flecainide ointment, symptom score; type: in vivo, mice; settings: 0.1% ointment; for therapeutic effect compared to the model group: 30 mg applied on the back for 4 consecutive days
Protocol: (§1) Psoriasis mouse model was established by intradermal injection of recombinant […] (1 ng/20 μL PBS, per mouse per day for 4 consecutive days) into depilated mice on the back.
Each group was applied with different substances (as shown in Table 1) on the backs of the mice for 4 consecutive days. The symptoms of the model mice and the treatment group mice were scored from Day 1.
The calculation rule or the number of days was: the number of days will be calculated from the end of modeling, which will be recorded as Day 0, followed by Day 1, Day 2, etc.
The formulation and preparation method of Flecainide ointment can be referred to as Example 4, which differed from Example 4 only in that the main drug was replaced with an equivalent amount of Flecainide (wherein the mass concentration of flecainide in the flecainide ointment was 0.1%).
(§2) Scoring criteria: 0 points, no symptom; 1 point, skin erythema; 2 points, scattered scurf, 3 points, diffuse dandruff, 4 points, skin sclerosis; 5 points, erythroderma or death.

Psoriasis mouse model [3] = assay: IL-23 psoriasis mouse model, Compound 1 by subcutaneous or intradermal injection, symptom score; type: in vivo, mice; settings: for symptom score: 4 consecutive days, scored on Day 6, scale 0-5
Protocol: as §1
On Day 2 after modeling, the psoriasis model mice were randomly divided into 3 groups, with the same number of mice in each group, and divided into a model group, treatment group (the treatment group included a subcutaneous treatment group and an intradermal treatment group), with the model group as a control. […] The model group was injected with 20 μL of normal saline intradermally. All three groups were injected for 4 consecutive days. On Day 6, the symptoms of the model and treatment groups were scored.
(§3) The calculation rule for the number of days was: the number of days will be calculated from the end of modeling, which will be recorded as Day 0, followed by Day 1, Day 2, etc.
as §2

Psoriasis mouse model [4] = settings: ointment 30 mg applied for 4 consecutive days, scored on Day 6; 0.01%, 0.1%, 0.2%, 0.5%, 1% tested
Protocol: as §1, §3, §2

[5] = 30 mg applied on the back, scale 0-5

For CCCNC[C@@H](O)COc1ccccc1C(=O)CCc1ccccc1 [Compound 3, R-propafenone], the treatment effect (Psoriasis mouse model [1]) was “the treatment effect was more obvious”.
O=C(NCC1CCCCN1)c1cc(OCC(F)(F)F)ccc1OCC(F)(F)F (stereo not drawn) [Flecainide] was tested, and the “therapeutic effect compared to the model group” value (Psoriasis mouse model [2]) was “neither the Flecainide ointment nor the ointment alone had a therapeutic effect”, the “symptom score on Day 2” value (Psoriasis mouse model [2]; [5]) was 3 points and the “symptom score on Days 2 to 7” value (Psoriasis mouse model [2]; 30 mg applied on the back, Days 2 to 7, scale 0-5) was 3 points.
For CCCNCC(O)COc1ccccc1C(=O)CCc1ccccc1 (stereo not drawn) [Compound 1, propafenone], the “therapeutic effect in dosing explorations” value (Psoriasis mouse model [3]; intracutaneous injections at 10 μg, 20 μg, 50 μg, 100 μg, 200 μg, 500 μg, 1 mg, 2 mg, 5 mg and 10 mg) was “had therapeutic effects”, the symptom score (Psoriasis mouse model [3]; intradermal injection on the back, 0.07 mg per mouse per day) was roughly 2 points and the “therapeutic effect compared with the model group and the subcutaneous treatment group” value (Psoriasis mouse model [3]; intradermal injection, 0.07 mg per mouse per day, Day 6) was “significant therapeutic effect”. For the same molecule, the symptom score (Psoriasis mouse model [3]; subcutaneous injection on the back, 0.07 mg per mouse per day) was roughly 3 points, the “therapeutic effect compared to the model group” value (Psoriasis mouse model [2]) was “significant therapeutic effect” and the “symptom score on Day 2” value (Psoriasis mouse model [2]; [5]) was 2 points. The “symptom score on Days 3 to 4” value (Psoriasis mouse model [2]; 30 mg applied on the back, Days 3 to 4, scale 0-5) was 3 points, the “symptom score on Days 7 and 8” value (Psoriasis mouse model [2]; 30 mg applied on the back, Days 7 and 8, scale 0-5) was 1 points and the “symptom score from Day 5” value (Psoriasis mouse model [2]; 30 mg applied on the back, from Day 5, scale 0-5) was no more than 2 points. For the same molecule, the “effective window dose of ointment (mass concentration) compared to the model group” value (Psoriasis mouse model [4]) was 0.1%-0.5%.
In the case of CCCNC[C@H](O)COc1ccccc1C(=O)CCc1ccccc1 [Compound 2, S-propafenone], the treatment effect (Psoriasis mouse model [1]) was “showed no treatment effect”.
